# Experimental data reported in patent publication USRE36139E, “Hydroquinone derivative” (Nippon Hypox Laboratories Incorporated, priority 1995, dated 1999).
# Assays:
# [1] = tested on: lipid of rat liver microsome; test: Inhibition activity against hyperoxidation of lipid of rat liver microsome; type: biochemical, male Sprague Dawley (SD) rats; settings: for antioxidant activity: general statement in words, no test named at the place; for antioxidant activity (conclusion from Table 2): result in words
# Procedure: [Inhibition activity against hyperoxidation of lipid of rat liver microsome ] (1) Preparation of rat liver microsome suspension, A plurality of male Sprague Dawley (SD) rats (weighing […]) were prepared. Each rat was anesthetized with pentobarbital, and then subjected to celiotomy. A cannula was introduced into the portal vein of each rat, the abdominal large veins were sectioned, and 500 ml of cold 0.9% NaCl was injected into the portal veins. Livers were extracted from individual rats, and the livers were cut to pieces in 1.15% KCl and homogenized with ice cooling. Then, 1.15% KCl was further added to obtain a 30% liver homogenized solution. The above homogenized solution was centrifugally separated at 8,000 g (g: gravitation acceleration) for 10 minutes, and the resultant supernatant was recovered. […] The so-prepared suspension was stored at -20° C. before a test described in the following (2), and it was used within 1 week after the preparation. (2) Test on inhibition activity against hyperoxidation of lipid As test compounds, the hydroquinone (HQ) derivatives obtained in Preparation Examples 1 to 12, a known hydroquinone derivative which was a compound of the formula (I) in which R^1 was methyl (hereinafter referred to as HQ1) and BHT were respectively tested on their inhibition activities against hyperoxidation of lipid in the following manner. First, 0.1 ml of the liver microsome suspension obtained in the above (1), 0.1 ml of reduced […] (NADPH) (final concentration 2 mM), 0.1 ml of adenosine 5'-diphosphate (ADP) (final concentration 10 mM) and 0.1 ml of a solution of one of the test compounds whose concentration was adjusted as shown in Table 2 with 10% dimethylformamide (DMF) were added to a tris-HCl buffer (167 mM KCl, 74 mM tris-HCE buffer (TRIS), pH 7.4), and the resultant mixture was warmed at 37° C. for 5 minutes. Then, 0.1 ml of FeCl3 (final concentration 0.1 mM) was added, and the mixture was warmed at 37° C. for 20 minutes. […] Then, 0.2 ml of 8.1% sodium dodecylsulfate (SDS), 1.5 ml of an acetic acid buffer (prepared by adjusting 20% acetic acid containing 0.27 mM HCl to pH 3.5 with 10N NaOH) and 1.5 ml of 0.8% thiobarbituric acid were added to the cooled reaction mixture, and the resultant mixture was warmed over a boiling water bath for 20 minutes. […] The mixture was vigorously stirred. The reaction mixture was centrifugally separated at 2,000 rpm for 10 minutes, and the resultant supernatant was measured for an absorbance at 532 nm to determine a thiobarbituric acid reaction amount. […] In Control, the solution of the test compound in 10% DMF was replaced with 0.1 ml of a 10% DMF solution, and the above procedures were repeated to determine a peroxidized lipid amount. In Blank, each of 0.1 ml of NDAPH, 0.1 ml of ADP and 0.1 ml of FeCl3 were replaced with 0.1 ml of water, the solution of the test compound in 10% DMF was replaced with 0.1 ml of a 10% DMF solution, and the above procedures were repeated to determine a peroxidized lipid amount. The inhibition ratio of the lipid peroxidation reaction was calculated on the basis of the following equation. Inhibition ratio (%)=[1-(OD1 -OD3)/(OD2 -OD3)]×100 OD1 : Absorbance when test compound is added. OD2 : Absorbance of Control OD3 : Absorbance of Blank
# mice = test: Acute toxicity test by simple oral administering; type: in vivo, Female ICR mice; settings: maximum dose 500 mg/kg, 14 days observation
# Text: Female ICR mice of 8 weeks age were used to carry out an acute toxicity test by simple oral administering.
# [2] = DPPH elimination ability (active organic radical species elimination ability); type: biochemical; settings: FIG. 1; absorbance at 517 nm; 0.02 ml of 10^-2 M DMF solution added to 2 ml of 10^-4 M DPPH in ethanol; result in words
# Procedure: [DPPH elimination ability]
# The hydroquinone derivative obtained in Preparation Example 5 and BHT as test compounds were measured for the ability to eliminate DPPH (α,α-diphenyl-β-picrylhydrazyl) (active organic radical species elimination ability) in the following manner.
# The test compounds were respectively dissolved in DMF to prepare DMF solutions having a test compound concentration of 10^-2 M.
# Then, 0.02 ml each of the above DMF solutions were respectively added to 2 ml of an ethanol EtOH solution containing 10^-4 M of DPPH, and the resultant solutions were measured for absorbance (ODS) at 517 nm at predetermined time intervals. The DPPH elimination ability of each test compound was determined on the basis of these measurement results. In Control, the DMF solution of the test compound was replaced with DMF itself,
# The elimination ability of each test compound was determined as a reduction ratio of ODS to the absorbance in Control.
# rats = settings: liver, large intestine, small intestine and gland of external acoustic meatus; cited from earlier work
# Salmonellae = settings: result in words; cited from earlier work
# laboratory animals = settings: result in words; cited from earlier work
Compound,"Inhibition ratio of lipid peroxidation ([1]; 10^-5 M test compound, 10 µM)","Inhibition ratio of lipid peroxidation ([1]; 10^-6 M test compound, 1 µM)",other results
CCCCCCOc1cc(C)c(O)c(C)c1C [Preparation Example 4],100.0%,98.9%,
CCCCCCCCCCOc1cc(C)c(O)c(C)c1C [Preparation Example 6],99.9%,38.3%,
"CCOc1cc(C)c(O)c(C)c1C [Preparation Example 12, 1-ethyl-2,3,5-trimethylhydroquinone]",87.2%,,mortality (mice): No mice were found to die
CCCCCCOc1c(C)cc(O)c(C)c1C [Preparation Example 8],98.3%,40%,
"CCCCOc1ccc(O)cc1 [Preparation Example 9, 1-butylhydroquinone]",86.1%,10.8%,antioxidant activity [1]: excellent antioxidant activity
CCCCCCCCOc1ccc(O)cc1 [Preparation Example 1],99.7%,9.8%,mortality (mice): No mice were found to die; antioxidant activity (conclusion from Table 2) [1]: excellent antioxidant activity over the known hydroquinone derivative HQ1
"COc1ccc(O)cc1 [HQ1, reference compound]",37.8%,,
"CCCCCCCCCCCCOc1ccc(O)cc1 [Preparation Example 11, 1-dodecylhydroquinone]",73.4%,6.3%,antioxidant activity [1]: excellent antioxidant activity
CCCCCCCCCCCCOc1cc(C)c(O)c(C)c1C [Preparation Example 7],63.9%,30.8%,
CCCCCCCCCCOc1ccc(O)cc1 [Preparation Example 2],79.5%,1.8%,antioxidant activity (conclusion from Table 2) [1]: excellent antioxidant activity over the known hydroquinone derivative HQ1
CCCCCCOc1ccc(O)cc1 [Preparation Example 10],99.1%,8.8%,antioxidant activity [1]: excellent antioxidant activity
"CCCCOc1cc(C)c(O)c(C)c1C [Preparation Example 3, 1-butyl-2,3,5-trimethylhydroquinone]",,75.9%,
CCCCCCCCOc1cc(C)c(O)c(C)c1C [Preparation Example 5],100.0%,74.8%,DPPH elimination ability [2]: excellent DPPH elimination ability over BHT
"Cc1cccn2c1nc1ccc(N)nc12 [Glu-P-1, 2-amino-6-methyldipyrido[1,2-a:3',2'-d]imidazole]",,,incidence of cancer (rats): high rate of incidence of cancer; mutagenic activity (Salmonellae): high mutagenic activity to Salmonellae; carcinogenic activity (laboratory animals): carcinogenic activity to laboratory animals
